Laboratory results as given in publication PMC9374667 (Communications Biology, 2022).
“And” between values parts separate entries of the source, which are not always exact repeats. Identical values can stand only once.

Columns and labels:
[1] = tested on: db/db mice; assay: Insulin tolerance test (ITT), AUC and initial slope; format: in vivo; settings: for blood glucose level: individual mice, in mmol/L (unit assumed); for Initial Slope: individual animals (Figure S10a)
Experimental: Mice were fasted for 4 h for insulin resistance test and intraperitoneally injected with 1 unit/kg of insulin. Blood glucose levels were measured from the tail vein blood at 0, 15, 30, 45, 60, 90, and 120 min after injection. Plasma insulin levels were measured using an ultrasensitive mouse insulin ELISA kit (Nanjing Jiancheng Bioengineering Institute, Nanjing, China).

[2] = In vitro dissolution studies: dynamic solubility in buffers and simulated biological fluids; format: physicochemical; settings: CMC-Na, mean
Experimental: (§1) Solubilities were determined by adding excess sample to 30 mL different mediums, such as HCl solution, acetate buffer, phosphate buffer, SGF, FaSSIF and FeSSIF. The configuration of various buffer solutions is shown in Supplementary Table 2. After being shaken at 400 rpm at 37 °C for 0.5, 1, 2, and 24 h, 0.3 mL of suspension was sampled and centrifuged at 14,000 rpm for 8 min to isolate mother liquor, and then analyzed by HPLC after dilution. All samples were analyzed in triplicate.

[3] = tested on: db/db mice; assay: Glucose tolerance test (GTT); format: in vivo; settings: for blood glucose level, mean: mean of 10 mice
[4] = tested on: db/db mice; assay: Fat depots weight (BAT, iWAT, eWAT; percentage of body weight); format: in vivo; set-up: key to BAT fat depot weight (Figure 4c): % of body weight (fat depot weight / body weight * 100%); settings: db/db mice; for eWAT fat depot weight (Figure 4c) / iWAT fat depot weight (Figure 4c): in %; for Fat depots weight / body weight: individual mice
Experimental: The lean wild type control and the db/db control mice were given equal vehicle volume (0.5% CMC-Na solution). All mice were monitored for food intake, body weight, and fasting blood glucose during the 35-day trial. Glucose tolerance test (GTT) and insulin resistance test (ITT) were performed at 4 and 5 weeks of treatment, respectively. Metabolic analysis was performed at 5 weeks of treatment. At the end of the study, blood samples were taken through the retroorbital venous sinus of mice, fat depots (brown fat, inguinal subcutaneous fat, epididymal fat, perirenal fat and mesenteric fat depot) were dissected, weighed, and immediately frozen in liquid nitrogen and stored at −80 °C until required. Weight of fat depots are expressed in percentage (fat depots weight /bodyweight * 100%).

[5] = pH of the solution after 24 hours of the dissolution test; format: physicochemical
Experimental: as §1, with “triplicate. […]” for “triplicate.”
into a 1000 mL flask followed by addition of about 800 mL of deionized water. The mixture is stirred until all solids are dissolved.
Add about 100 mL of 0.1 N HCl, check pH value with a pH meter and adjust the pH to 2.0 with HCl (1 N) or NaOH (1 N). Then dilute to the volume with deionized water.
* 1N sodium hydroxide: Weigh 8 g NaOH in a 200 mL plastic volumetric flask, add deionized water to volume and mix well. […]
phosphate and 3.093 g sodium chloride in a 500 mL volumetric flask, add about 0.450 L deionized water, and adjust the pH to 6.5 with 1N sodium hydroxide or 1 N hydrochloric acid. Make up to volume (0.5 […]
Step 2: Place and dissolve 1.120 g FaSSIF/FeSSIF/FaSSGF instant powder with 0.250 L of buffer (from step 1) in a 500 mL volumetric flask, then add buffer (from step 1) to volume, and mix well. […]
g sodium chloride in a 500 mL volumetric flask, add about 0.450 L deionized water, and adjust the pH to 5.0 with 1 N sodium hydroxide or 1 N hydrochloric acid. Make up to volume (500 mL) with
Step 2: Place and dissolve 5.600 g FaSSIF/FeSSIF/FaSSGF instant […]
0.750 L deionized water. Make up to volume (1000 mL) with deionized water and placed overnight.
(1 picture or pasted object on this page, not shown here)

[6] = tested on: db/db mice; assay: HE staining of epididymal adipose tissue, adipocyte size; format: in vivo; settings: for Cell diameter (adipocyte size of eWAT): individual cells
Experimental: The adipose tissue was fixed overnight in 4% paraformaldehyde, then embedded in paraffin and cut into 5 µm thick slices. Tissue sections were stained with hematoxylin and eosin (H&E). For immunohistochemistry, sections were incubated with primary antibodies against F4/80 (1:100 dilution) diluted in the blocking solution at 4 °C overnight. The tissue sections were then incubated with the horseradish peroxidase (HRP)-conjugated secondary antibody at room temperature for 2 h. Finally, the sections were developed with diaminobenzidine (DAB) and counterstained with hematoxylin. Images were obtained under a microscope. To quantify the F4/80-positive macrophages, two random fields per sample were analyzed by Image J software. The IHC profiler plugin of ImageJ was used to calculate the F4/80 positive area.

[7] = BJ 75mg/kg, time column 1 of 7 (time not printed)
[8] = BJ 75mg/kg, time column 2 of 7 (time not given)
[9] = BJ 75mg/kg, time column 3 of 7 (time not given)
[10] = BJ 75mg/kg, time column 4 of 7 (time not given)
[11] = BJ 75mg/kg, time column 5 of 7 (time not given)
[12] = BJ 75mg/kg, time column 6 of 7 (time not given)
[13] = BJ 75mg/kg, time column 7 of 7 (time not printed)
[14] = BJ 150mg/kg, time column 1 of 7 (time not printed)
[15] = BJ 150mg/kg, time column 2 of 7 (time not given)
[16] = BJ 150mg/kg, time column 3 of 7 (time not given)
[17] = BJ 150mg/kg, time column 4 of 7 (time not given)
[18] = BJ 150mg/kg, time column 5 of 7 (time not given)
[19] = BJ 150mg/kg, time column 6 of 7 (time not given)
[20] = BJ 150mg/kg, time column 7 of 7 (time not printed)
[21] = BJ 75mg/kg, individual mice 1-10
[22] = BJ 150mg/kg, individual mice 1-10
[23] = BJ 75 and 150 mg/kg, BBR 150 mg/kg, Ibu 150 mg/kg

For `CC(C)Cc1ccc(C(C)C(=O)[O-])cc1.COc1ccc2cc3[n+](cc2c1OC)CCc1cc2c(cc1-3)OCO2.O.O.O.O` [BJ, berberine-ibuprofen], the blood glucose level [1, 7] was 18.5 and 19.1 and 12.0 and 14.2 and 11.0 and 11.7 and 16.7 and 19.2 and 21.8 and 15.9, the blood glucose level [1, 8] was 19.2 and 21.2 and 12.1 and 14.6 and 8.3 and 11.4 and 18.6 and 22.2 and 23.5 and 18.5 and the blood glucose level [1, 9] was 18.3 and 19.0 and 10.1 and 10.5 and 8.8 and 7.5 and 13.7 and 19.3 and 20.1 and 11.6. The blood glucose level [1, 10] was 13.0 and 15.2 and 7.6 and 10.0 and 6.8 and 7.5 and 12.1 and 16.3 and 20.8 and 11.0, the blood glucose level [1, 11] was 12.4 and 16.1 and 8.4 and 8.8 and 5.9 and 7.1 and 11.2 and 16.2 and 16.3 and 10.1 and the blood glucose level [1, 12] was 10.2 and 13.2 and 6.9 and 8.2 and 5.3 and 6.4 and 9.7 and 13.6 and 14.6 and 9.4. The blood glucose level [1, 13] was 12.1 and 12.2 and 9.0 and 9.8 and 4.9 and 5.5 and 10.8 and 12.3 and 14.9 and 10.0, the blood glucose level [1, 14] was 18.0 and 17.8 and 9.3 and 14.4 and 11.4 and the blood glucose level [1, 15] was 13.2 and 15.0 and 7.7 and 11.7 and 11.6. The blood glucose level [1, 16] was 7.7 and 7.0 and 1.7 and 6.1, the blood glucose level [1, 17] was 7.2 and 6.7 and 1.5 and 6.3 and the blood glucose level [1, 18] was 9.0 and 8.2 and 3.3 and 5.2. The blood glucose level [1, 19] was 8.2 and 7.6 and 2.8 and 7.0, the blood glucose level [1, 20] was 10.4 and 7.7 and 4.0 and 7.3 and the “Insulin sensitivity (ITT)” value ([1]; db/db mice, 150 mg/kg, week 5) was “more sensitive to insulin stimulation”. The “Initial Slope” value ([1]; db/db mice, BJ 75mg/kg) was -0.0733 mmol/L/min and -0.14 mmol/L/min and -0.1 mmol/L/min and 0.0033 mmol/L/min and -0.0567 mmol/L/min and -0.1433 mmol/L/min and -0.0067 mmol/L/min and -0.0033 mmol/L/min and -0.0633 mmol/L/min and -0.1233 mmol/L/min, the “Initial Slope” value ([1]; db/db mice, BJ 150mg/kg) was -0.1767 mmol/L/min and -0.22 mmol/L/min and -0.15 mmol/L/min and -0.28 mmol/L/min and -0.3433 mmol/L/min and -0.36 mmol/L/min and -0.2533 mmol/L/min and -0.2467 mmol/L/min and the “BBR dissolved in CMC-Na (Figure S7a)” value ([2]; time 0.5) was 0.8321. The “Ibu dissolved in CMC-Na (Figure S7b)” value ([2]; time 0.5) was 0.4805, the “BBR dissolved in CMC-Na (Figure S7a)” value ([2]; time 1) was 1.458 and the “Ibu dissolved in CMC-Na (Figure S7b)” value ([2]; time 1) was 0.5844. For the same molecule, the “BBR dissolved in CMC-Na (Figure S7a)” value ([2]; time 2) was 1.5642, the “Ibu dissolved in CMC-Na (Figure S7b)” value ([2]; time 2) was 0.6306 and the “BBR dissolved in CMC-Na (Figure S7a)” value ([2]; time 24) was 1.6671. For the same molecule, the “Ibu dissolved in CMC-Na (Figure S7b)” value ([2]; time 24) was 0.6693, the blood glucose level, mean [3, 7] was 20.5 mmol/L and the blood glucose level, mean [3, 8] was 26.6 mmol/L. The blood glucose level, mean [3, 9] was 31.4 mmol/L, the blood glucose level, mean [3, 10] was 32 mmol/L and the blood glucose level, mean [3, 11] was 31.2 mmol/L. It also gave a blood glucose level, mean [3, 12] of 28.2 mmol/L, a blood glucose level, mean [3, 13] of 23.2 mmol/L and a blood glucose level, mean [3, 14] of 12.3 mmol/L. It also gave a blood glucose level, mean [3, 15] of 26.4 mmol/L, a blood glucose level, mean [3, 16] of 27.7 mmol/L and a blood glucose level, mean [3, 17] of 24.1 mmol/L. For the same molecule, the blood glucose level, mean [3, 18] was 21.2 mmol/L, the blood glucose level, mean [3, 19] was 18.4 mmol/L and the blood glucose level, mean [3, 20] was 15.8 mmol/L. For the same molecule, the “Glucose tolerance (GTT)” value ([3]; db/db mice, 150 mg/kg, week 4) was “displayed better tolerance to glucose load”, the “BAT fat depot weight (Figure 4c)” value [4, 21] was 1.4827 and 0.5576 and 2.7679 and 1.5898 and 1.8729 and 1.268 and 0.7299 and 1.4681 and 1.4209 and 1.9195 and the “eWAT fat depot weight (Figure 4c)” value [4, 21] was 2.9499 and 3.004 and 3.3073 and 3.0683 and 2.8654 and 1.9039 and 2.9972 and 3.1786 and 2.5863 and 2.885. The “iWAT fat depot weight (Figure 4c)” value [4, 21] was 2.9834 and 2.2193 and 4.5703 and 3.1934 and 4.0303 and 2.1465 and 2.6777 and 3.7948 and 2.2136 and 4.2859, the “eWAT fat depot weight (Figure 4c)” value [4, 22] was 2.6032 and 2.4699 and 2.5757 and 2.9739 and 2.5582 and 2.4535 and 2.305 and 2.1485 and 2.4952 and 2.1171 and the “iWAT fat depot weight (Figure 4c)” value [4, 22] was 2.0087 and 2.2014 and 2.1848 and 3.5434 and 3.664 and 1.962 and 0.513 and 2.1562 and 2.8234 and 1.567. The “Fat depots weight / body weight” value ([4]; 75 mg/kg for 35 days, 75 mg/kg) was 17.3087% and 20.1428% and 17.1651% and 21.4638% and 17.3569% and 14.6768% and 23.7077% and 20.828% and 19.5629% and 16.4679%, the “Fat depots weight / body weight” value ([4]; 150 mg/kg for 35 days, 150 mg/kg) was 11.5274% and 15.536% and 18.4944% and 12.6638% and 16.2402% and 14.3781% and 12.8992% and 19.8596% and 21.4381% and 12.5947% and the “Fat depots weight compared with vehicle” value [4, 23] was “lower fat depots weight than vehicle-treated db/db mice”. The “pH of the solution after 24 hours” value ([5]; Acetate buffer, blank vehicle 4.54) was 4.82, the “pH of the solution after 24 hours” value ([5]; CMC-Na, blank vehicle 6.51) was 6.70 and the “pH of the solution after 24 hours” value ([5]; FaSSIF-v1, blank vehicle 6.51) was 5.50. The “pH of the solution after 24 hours” value ([5]; FeSSIF-v1, blank vehicle 5.04) was 5.17, the “pH of the solution after 24 hours” value ([5]; HCl solution, blank vehicle 1.08) was 1.03 and the “pH of the solution after 24 hours” value ([5]; Phosphate buffer, blank vehicle 6.84) was 6.90. For the same molecule, the “pH of the solution after 24 hours” value ([5]; SGF, blank vehicle 2.03) was 5.38, the “Cell diameter (adipocyte size of eWAT)” value ([6]; 75 mg/kg) was 121.031 µm and 117.863 µm and 116.509 µm and 116.462 µm and 115.083 µm and 111.737 µm and 111.179 µm and 109.716 µm and 106.71 µm and 106.209 µm and 103.54 µm and 98.2043 µm and 95.428 µm and 94.4084 µm and 90.8792 µm and 133.968 µm and 130.976 µm and 129.724 µm and 125.916 µm and 124.05 µm and the “Cell diameter (adipocyte size of eWAT)” value ([6]; 150 mg/kg) was 102.304 µm and 92.1827 µm and 91.4137 µm and 90.3818 µm and 88.4919 µm and 87.3914 µm and 86.5338 µm and 86.4994 µm and 85.9825 µm and 85.1497 µm and 81.6079 µm and 81.6018 µm and 80.5245 µm and 80.4936 µm and 112.756 µm and 110.047 µm and 105.5 µm and 104 µm and 102.927 µm. For the same molecule, the “Size of adipocytes in eWAT compared with vehicle” value [6, 23] was “significantly reduced”.
